Structures can show the parent of a compound that is named as a salt.
What follows are compounds tested on RSV ATCC VR-1540 (A2) (assay: microbe, parasite or virus in culture). Settings: Hep2 cells, incubated for 4 days, CPE detected with XTT assay (absorbance 450 nm); read-out: EC50 (nmol/L) against RSV A2 strain.
Type: cell-based

Row | Compound | EC50 [nmol/L]
1 | (18aS)-2-fluoro-13-(cis-3-hydroxycyclobutyl)-11-methyl-8,9,10,11,19,20,21,22-octahydro-l 8aH,24H-18,15-(metheno)pyrido[2,1-l]pyrimido[6,1-h][1,4,7,9,10,13]benzoxapentaazacyclohexadecine-7,24(6H)-dione [Example 109] | 1.14
2 | (18aS)-13-(azetidin-1-yl)-2-fluoro-7-(hydroxymethyl)-11-methyl-6,7,8,9,10,11,19,20,21,22-decahydro-18aH,24H-18,15-(metheno)pyrido[2,1-l]pyrimido[6,1-h][1,4,7,9,10,13]benzoxapentaazacyclohexadecin-24-one [Example 146] | 20.8
3 | (23aS)-18-(azetidin-1-yl)-8-fluoro-16-methyl-1,3,4,11,12,13,14,15,16,23a-decahydro-2H,6H-23,20-(metheno)pyrido[1,2-b]pyrimido[1,6-f][2,5,6,8,11]benzopentaazacyclopentadecin-6-one [Example 148] | 28.9

Same assay, conditions: human respiratory syncytial virus, HEp-2, 96 h; Hep2 cells, incubated for 4 days, CPE detected with XTT assay (absorbance 450 nm); read-out: EC50 (nmol/L) against RSV A2 strain

Row | Compound | EC50 [nmol/L]
4 | CN1CCCCOc2cccc(F)c2C(=O)N2CCCCC2c2cc3nc(N4CCC(N)C4)cc1n3n2 [Example 249, (23aS)-18-[(3S)-3-aminopyrrolidin-1-yl]-7-fluoro-16-methyl-1,3,4,13,14,15,16,23a-octahydro-2H,6H,12H-23,20-(metheno)pyrido[2,1-k]pyrimido[6,1-g][1,6,8,9,12]benzoxatectraazacyclopentadecin-6-one] | 2.7
5 | CN1CCCCOc2ccc(Cl)cc2C(=O)N2CCCCC2c2cc3nc(N4CC[C@H](N)C4)cc1n3n2 (stereo partly drawn) [Example 254, (23aS)-18-[(3S)-3-aminopyrrolidin-1-yl]-8-chloro-16-methyl-1,3,4,13,14,15,16,23a-octahydro-2H,6H,12H-23,20-(metheno)pyrido[2,1-k]pyrimido[6,1-g][1,6,8,9,12]benzoxatetraazacyclopentadecin-6-one] | 3.28
6 | CN1CCCCCc2ccc(F)cc2C(=O)N2CCCC[C@H]2c2cc3nc(N4CCC4)cc1n3n2 [Example 279, (23aS)-18-(azetidin-1-yl)-8-fluoro-16-methyl-1,3,4,11,12,13,14,15,16,23a-decahydro-2H,6H-23,20-(metheno)pyrido[1,2-b]pyrimido[1,6-f][2,5,6,8]benzotetraazacyclopentadecin-6-one] | 14.5
7 | Cc1c(N2CCC(N)C2)nc2cc3nn2c1NCCCCOc1ccc(Cl)cc1C(=O)N1CCCCC31 [Example 283, (23aS)-18-[(3S)-3-aminopyrrolidin-1-yl]-8-chloro-17-methyl-1,3,4,13,14,15,16,23a-octahydro-2H,6H,12H-23,20-(metheno)pyrido[2,1-k]pyrimido[6,1-g][1,6,8,9,12]benzoxatetraazacyclopentadecin-6-one] | 6.28
8 | Cc1c(N2CCC2)nc2cc3nn2c1NCCCCOc1ccc(Cl)cc1C(=O)N1CCCC[C@@H]31 [Example 284, (23aS)-18-(azetidin-1-yl)-8-chloro-17-methyl-1,3,4,13,14,15,16,23a-octahydro-2H,6H,12H-23,20-(metheno)pyrido[2,1-k]pyrimido[6,1-g][1,6,8,9,12]benzoxatetraazacyclopentadecin-6-one] | 22.2
9 | Cc1c(NCCN)nc2cc3nn2c1NCCCCOc1ccc(Cl)cc1C(=O)N1CCCC[C@@H]31 [Example 285, (23aS)-18-[(2-aminoethyl)amino]-8-chloro-17-methyl-1,3,4,13,14,15,16,23a-octahydro-2H,6 H,12H-23,20-(metheno)pyrido[2,1-k]pyrimido[6,1-g][1,6,8,9,12]benzoxatetraazacyclopentadecin-6-one hydrochloride] | 11.9
10 | Cc1c(N2CCC(N)C2)nc2cc3nn2c1N(C)CCCCOc1ccc(Cl)cc1C(=O)N1CCCCC31 [Example 286, (23aS)-18-[(3S)-3-aminopyrrolidin-1-yl]-8-chloro-16,17-dimethyl-1,3,4,13,14,15,16,23a-octahydro-2H,6H,12H-23,20-(metheno)pyrido[2,1-k]pyrimido[6,1-g][1,6,8,9,12]benzoxatetraazacyclopentadecin-6-one] | 20.8
11 | CN1CCOCCOc2ccc(Cl)cc2C(=O)N2CCCCC2c2cc3nc(N4CCC(N)C4)cc1n3n2 [Example 297, (18aS)-13-[(3S)-3-aminopyrrolidin-1-yl]-2-chloro-11-methyl-6,7,10,11,19,20,21,22-octahydro-9H,18aH,24H-18,15-(metheno)pyrido[2,1-l]pyrimido[6,1-h][1,4,7,9,10,13]benzodioxatetraazacyclohexadecin-24-one] | 8.74
12 | Cc1c(N2CCC(N)C2)nc2cc3nn2c1NCCOCCOc1ccc(Cl)cc1C(=O)N1CCCCC31 [Example 299, (18aS)-13-[(3S)-3-aminopyrrolidin-1-yl]-2-chloro-12-methyl-6,7,10,11,19,20,21,22-octahydro-9H,18aH,24H-18,15-(metheno)pyrido[2,1-l]pyrimido[6,1-h][1,4,7,9,10,13]benzodioxatetraazacyclohexadecin-24-one] | 9.69
13 | CCc1ccc2c(c1)C(=O)N(C)[C@@H](CC)c1cc3nc(N4CC[C@H](N)C4)cc(n3n1)N(C)CCCS(=O)(=O)N2 [Example 303, (17S)-3-[(3S)-3-aminopyrrolidin-1-yl]-13,17-diethyl-5,16-dimethyl-7,8,16,17-tetrahydro-5H-18,1-(metheno)-9λ^6-pyrimido[6,1-g][2,1,6,8,9,12]benzothiapentaazacyclopentadecine-9,9,15 (6H,10H)-trione] | 10.5
14 | CCN1CCCS(=O)(=O)Nc2ccc(F)cc2C(=O)N2CCCC[C@H]2c2cc3nc(N4CCC4)cc1n3n2 [Example 318, (23aS)-18-(azetidin-1-yl)-16-ethyl-8-fluoro-1,3,4,13,14,15,16,23a-octahydro-2H,6H-23,20-(metheno)-12λ^6-pyrido[2,1-k]pyrimido[6,1-g][2,1,6,8,9,12]benzothiapentaazacyclopentadecine-6,12,12(11H)-trione] | 22.7
15 | Cc1c(NCCN)nc2cc3nn2c1N(C)CCCS(=O)(=O)Nc1ccc(Cl)cc1C(=O)N1CCCC[C@@H]31 [Example 327, (23aS)-18-[(2-aminoethyl)amino]-8-chloro-16,17-dimethyl-1,3,4,13,14,15,16,23a-octahydro-2H,6H-23,20-(metheno)-12λ^6-pyrido[2,1-k]pyrimido[6,1-g][2,1,6,8,9,12]benzothiapentaazacyclopentadecine-6,12,12(11H)-trione] | 1.72
16 | Cc1nnc2n1CCN(C)c1cc(N3CC(N)C3)nc3cc(nn13)[C@@H]1CCCCN1C(=O)c1cc(Cl)ccc1OC2 [Example 328, (20aS)-15-(3-aminoazetidin-1-yl)-2-chloro-9,13-dimethyl-12,13,21,22,23,24-hexahydro-6H, 11H,20aH,26H-20,17-(metheno)pyrido[2,1-l]pyrimido[6,1-h][1,2,4]triazolo[3,4-c][1,4,7,9,10,13]benzoxapentaazacyclohexadecin-26-one] | 9.48
17 | Cc1nnc2n1CCN(C)c1cc(N3CCC3)nc3cc(nn13)[C@@H]1CCCCN1C(=O)c1cc(Cl)ccc1OC2 [Example 329, (20aS)-15-(azetidin-1-yl)-2-chloro-9,13-dimethyl-12,13,21,22,23,24-hexahydro-6H,11H,20aH,26H-20,17-(metheno)pyrido[2,1-l]pyrimido[6,1-h][1,2,4]triazolo[3,4-c][1,4,7,9,10,13]benzoxapentaazacyclohexadecin-26-one] | 1.61
18 | CN1CCc2cn(nn2)Cc2ccc(Cl)cc2C(=O)N2CCCC[C@H]2c2cc3nc(N4CC(N)C4)cc1n3n2 [Example 330, (19aS)-14-(3-aminoazetidin-1-yl)-2-chloro-12-methyl-11,12,20,21,22,23-hexahydro-10H,19aH-6,9:19,16-di(metheno)pyrido[2,1-m]pyrimido[6,1-i][2,3,4,8,10,11,14]benzoheptaazacycloheptadecin-25(5H)-one] | 19.8
19 | CN1CCCC(=O)NCC(C)(c2ccc(F)cc2)C(=O)N2CCCC[C@H]2c2cc3nc(N4CC(N)C4)cc1n3n2 (stereo partly drawn) [Example 371, (18aS)-3-(3-aminoazetidin-1-yl)-12-(4-fluorophenyl)-5,12-dimethyl-7,8,11,12,16,17,18,18a-octahydro-5H,15H-19,1-(metheno)pyrido[1,2-m]pyrimido[1,6-b][1,2,4,9,13]pentaazacyclopentadecine-9,13(6H,10H)-dione] | 12.8
20 | CN1CCCCS(=O)(=O)NC(C)(c2ccc(F)cc2)C(=O)N2CCCC[C@H]2c2cc3nc(N4CC(O)C4)cc1n3n2 (stereo partly drawn) [Example 377, (18aS)-12-(4-fluorophenyl)-3-(3-hydroxyazetidin-1-yl)-5,12-dimethyl-6,7,8,9,11,12,16,17,18,18a-decahydro-5H,15H-19,1-(metheno)-10λ^6-pyrido[1,2-e]pyrimido[1,6-i][1,2,5,8,9,11]thiapentaazacyclopentadecine-10,10,13-trione] | 22.7
21 | CN1CCCCOCC(C)(c2cccnc2)C(=O)N2CCCCC2c2cc3nc(N4CC(N)C4)cc1n3n2 [Example 380, (18aS)-3-(3-aminoazetidin-1-yl)-5,12-dimethyl-12-(pyridin-3-yl)-6,7,8,9,11,12,16,17,18,18a-decahydro-5H,13H,15H-19,1-(metheno)pyrido[,2-e]pyrimido[1,6-i][1,5,8,9,11]oxatetraazacyclopentadecin-13-one] | 8.77

Each compound was assayed on F protein D486N mutant strain of RSV A2 strain (assay: not given). Settings: Hep2 cells, incubated for 4 days, CPE detected with XTT assay (absorbance 450 nm); read-out: EC50 (nmol/L) against F protein D486N mutant strain of RSV A2 strain.
Type: cell-based, respiratory syncytial virus (RSV)

Row | Compound | EC50 [nmol/L]
22 | CC1CCNC(=O)COc2ccc(Cl)cc2C(=O)N2CCCCC2c2cc3nc(C4CC4)cc1n3n2 (single isomer, unassigned) [Example 124a] | 7.23
23 | Cc1ccc2c(c1)C(=O)N1CCCCC1c1cc3nc(C4CC4)cc(n3n1)C(C)CCNC(=O)CO2 (single isomer, unassigned) [Example 126a] | 2.05
24 | CN1CCNC(C(F)(F)F)COc2ccc(Cl)cc2C(=O)N2CCCCC2c2cc3nc(N4CC(N)C4)cc1n3n2 (single isomer, unassigned) [Example 339] | 4.11
